The results in this text go back to patent US7576135B2, “Diamine derivatives” (Daiichi Pharmaceutical Co., Ltd., priority 2002, dated 2009).

Structures can show the parent of a compound that is named as a salt.

T1 sequence (P00742 235-488 limits assumed): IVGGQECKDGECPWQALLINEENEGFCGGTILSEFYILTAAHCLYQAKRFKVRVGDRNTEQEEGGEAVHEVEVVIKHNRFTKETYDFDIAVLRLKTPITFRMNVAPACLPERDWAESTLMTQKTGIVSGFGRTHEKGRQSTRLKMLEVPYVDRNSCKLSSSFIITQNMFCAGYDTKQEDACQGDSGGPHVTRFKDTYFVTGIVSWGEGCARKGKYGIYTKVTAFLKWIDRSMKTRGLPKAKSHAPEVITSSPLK
T1 sequence (P00742 41-179 partner limits assumed): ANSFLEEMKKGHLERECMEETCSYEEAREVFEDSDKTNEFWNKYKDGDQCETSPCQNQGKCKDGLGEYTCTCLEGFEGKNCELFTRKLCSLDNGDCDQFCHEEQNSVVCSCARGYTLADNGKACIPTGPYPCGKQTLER

Tested on in one data set: not given
Test: not given
Settings: not given
Broadly, the melting point is the temperature, or range, at which the solid turns liquid. For the compound `CN1CCc2nc(C(=O)N[C@@H]3C[C@@H](C(=O)N(C)C)CC[C@@H]3NC(=S)C(=O)Nc3ccc(F)cn3)sc2C1` (hydrate or solvate), the melting point is 176 to 179 °C (dec.).

In turn, `CN1CCc2nc(C(=O)N[C@@H]3CCS(=O)(=O)C[C@H]3NC(=O)c3cc4cc(F)ccc4[nH]3)sc2C1` (relative stereo) (as salt: hydrochloride) [Example 183, N-((3R*,4R*)-3-{[(5-Fluoroindol-2-yl)carbonyl]amino}-1,1-dioxohexahydro-1-thiopyran-4-yl)-5-methyl-4,5,6,7-tetrahydrothiazolo[5,4-c]pyridine-2-carboxamide hydrochloride] showed a melting point of 244 to 249 °C.

The next data set has as its target T1, human FXa (Homo sapiens, UniProt P00742).
T1 construct: purchased Enzyme Research Labolatories, Inc
Kind of data set: Determination of human FXa-inhibiting effect (IC50 value), chromogenic substrate S-2222. The format is biochemical. Conditions: substrate S-2222, absorbance at 405 nm, room temperature. The text has this:
Determination of Human FXa-Inhibiting Effect (IC50 Value):
As a control, Tris buffer was used in place of the test compound.
In general, IC50 refers to the concentration that inhibits the measured activity by half. Read a high IC50 as a need for much substance. On to `CN1CCc2nc(C(=O)N[C@@H]3C[C@@H](n4cnnc4)CC[C@@H]3NC(=O)C(=O)Nc3ccc(Cl)cn3)sc2C1` [Ex. 394, N^1-(5-chloropyridin-2-yl)-N^2-(1S,2R,4S)-2-{[(5-methyl-4,5,6,7-tetrahydrothiazolo[5,4-c]pyridin-2-yl)carbonyl]amino}-4-(4H-1,2,4-triazol-4-yl)cyclohexyl)ethanediamide hydrochloride], for which the IC50 was 1.1 nM.

`C#Cc1ccc(NC(=O)C(=O)N[C@H]2CC[C@H](c3nnc(C)o3)C[C@H]2NC(=O)c2nc3c(s2)CN(C)CC3)nc1` [Ex. 402, N^1-(5-ethynylpyridin-2-yl)-N^2-((1S,2R,4S)-4-(5-methyl-1,3,4-oxadiazol-2-yl)-2-{[(5-methyl-4,5,6,7-tetrahydrothiazolo[5,4-c]pyridin-2-yl)carbonyl]amino}cyclohexyl)ethanediamide] registered an IC50 of 1.1 nM.

As to `Cc1nnc([C@H]2CC[C@H](NC(=O)C(=O)Nc3ccc(Cl)cn3)[C@H](NC(=O)c3nc4c(s3)CN(C)CC4)C2)o1` [Ex. 384, N^1-(5-chloropyridin-2-yl)-N^2-[(1S,2R,4S)-2-{[(5-methyl-4,5,6,7-tetrahydrothiazolo[5,4-c]pyridin-2-yl)carbonyl]amino}-4-(5-methyl-1,3,4-oxadiazol-2-yl)cyclohexyl]ethanediamide hydrochloride], the IC50 was determined as 1 nM.

In turn, `CN1CCc2nc(C(=O)N[C@@H]3C[C@@H](c4nnco4)CC[C@@H]3NC(=O)C(=O)Nc3ccc(Cl)cn3)sc2C1` [Ex. 385, N^1-(5-chloropyridin-2-yl)-N^2-[(1S,2R,4S)-2-{[(5-methyl-4,5,6,7-tetrahydrothiazolo[5,4-c]pyridin-2-yl)carbonyl]amino}-4-(1,3,4-oxadiazol-2-yl)cyclohexyl]ethanediamide] showed an IC50 of 1.3 nM.

`CN1CCc2nc(C(=O)N[C@@H]3C[C@@H](n4cccc4)CC[C@@H]3NC(=O)C(=O)Nc3ccc(Cl)cn3)sc2C1` [Ex. 413, N^1-(5-chloropyridin-2-yl)-N^2-[(1S,2R,4S)-2-{[(5-methyl-4,5,6,7-tetrahydrothiazolo[5,4-c]pyridin-2-yl)carbonyl]amino}-4-(1H-pyrrol-1-yl)cyclohexyl]ethanediamide hydrochloride] registered an IC50 of 1 nM.

`Cc1nnc([C@H]2CC[C@H](NC(=O)C(=O)Nc3ccc(Br)cn3)[C@H](NC(=O)c3nc4c(s3)CN(C)CC4)C2)o1` [Ex. 396, N^1-(5-bromo-2-pyridinyl)-N^2-((1S,2R,4S)-4-(5-methyl-1,3,4-oxadiazol-2-yl)-2-{[(5-methyl-4,5,6,7-tetrahydrothiazolo[5,4-c]pyridin-2-yl)carbonyl]amino}cyclohexyl)ethanediamide hydrochloride] registered an IC50 of 1.1 nM.

`Cc1nnc([C@H]2CC[C@H](NC(=O)C(=O)Nc3ccc(Cl)s3)[C@H](NC(=O)c3nc4c(s3)CN(C)CC4)C2)o1` [Ex. 395, N^1-(5-chloro-2-thienyl)-N^2-((1S,2R,4S)-4-(5-methyl-1,3,4-oxadiazol-2-yl)-2-{[(5-methyl-4,5,6,7-tetrahydrothiazolo[5,4-c]pyridin-2-yl)carbonyl]amino}cyclohexyl)ethanediamide citric acid salt] came in with an IC50 of 0.72 nM.
